Results reported in US20100305076A1, “METHODS OF TREATMENT FOR ULCERATIVE COLITIS” (priority 2006, published 2010).

Experiments:
Assay type in all cases: in vivo, human
[1] = system: moderate ulcerative colitis; assay: Individual subject examples: PGA score and rectal bleeding
Description: The subject takes two tablets of the pharmaceutical in the morning and two tablets in the evening such that about 4.8 g/day of 5-ASA is delivered. […] The four tablets are taken in the morning so that 4.8 g/day of 5-ASA is delivered.

[2] = system: moderate ulcerative colitis; assay: Two phase III randomized double-blind trials: overall improvement (treatment success) from baseline at week 6; settings: for Overall improvement: all subjects with moderately active UC, Studies I and II
Description: Data from subjects with mild to moderate UC are combined and analyzed from two phase III, multi-center, randomized, double-blind, controlled clinical trials of identical design assessing the safety and clinical efficacy of an increased dosage of 5-ASA. The primary endpoint is the percentage of moderate UC subjects achieving overall improvement (i.e., treatment success) from baseline at week 6. This is defined as: (1) complete response (remission); complete resolution of signs and symptoms (stool frequency, rectal bleeding, Subject Functional Assessment (SFA) and sigmoidoscopy score) and a Physician's Global Assessment (PGA) of 0; or (2) partial response; improvement from baseline in the PGA score and improvement in at least one clinical assessment (stool frequency, rectal bleeding, SFA and sigmoidoscopy score) and no worsening in any of the other clinical assessments. […] Pre-specified subgroup analyses for fifty-four demographic and baseline characteristics are performed in subjects with moderately active disease (PGA score=2) to assess consistency of primary endpoint.

[3] = Safety and tolerability in the phase III trials
Description: Data from subjects with mild to moderate UC are combined and analyzed from two phase III, multi-center, randomized, double-blind, controlled clinical trials of identical design assessing the safety and clinical efficacy of an increased dosage of 5-ASA.

[4] = system: moderate ulcerative colitis; assay: Bayesian analysis of treatment success probability in men with moderate disease
Protocol: In addition, a Bayesian analysis is conducted to calculate the probability that treatment with the 4.8 g/day dose in men results in a higher success rate than treatment with the 2.4 g/day does. This type of analysis considers data from any previous studies conducted using either of the two dose levels. […] Using these prior distributions and Bayes analyses, the “posterior distribution” is calculated for each dose level based on the date obtained from previous studies.

[5] = Example 6: person, two 1.2 g delayed-release tablets three times daily (7.2 g/day)
[6] = Example 5: person previously treated with steroids, four 1.2 g delayed-release tablets once daily (4.8 g/day)
[7] = Example 4: non-smoking man, oral, two 1.2 g tablets twice daily

SMILES: O=C(O)CCNC(=O)c1ccc(/N=N/c2ccc(O)c(C(=O)O)c2)cc1 [balsalazide, (E)-5-[[4-[[(2-carboxyethyl)amino]carbonyl]phenyl]azo]-2-hydroxybenzoic acid]
- Physician's Global Assessment (PGA) score [1, 5]: improves in comparison to baseline
- Rectal bleeding [1, 5]: reduced

SMILES: Nc1ccc(O)c(C(=O)O)c1 [mesalamine, 5-amino-2-hydroxybenzoic acid]
- Overall improvement ([2]; 2.4 g/day (400 mg tablet)): 58%
- Success Rate ([2]; 2.4 g/day, male, moderate disease, Study 1, primary analysis): 50.0%
- Success Rate ([2]; 2.4 g/day, male, moderate disease, Study 1, set-to-failure): 46.8%
- Success Rate ([2]; 2.4 g/day, male, moderate disease, Study 2, primary analysis): 48.8%
- Success Rate ([2]; 2.4 g/day, male, moderate disease, Study 2, set-to-failure): 47.7%
- Overall improvement at week 6 ([2]; 2.4 g/day, moderate UC, combined studies, female): 66%
- Overall improvement at week 6 ([2]; 2.4 g/day, moderate UC, combined studies, left-sided colitis): 56%
- Overall improvement at week 6 ([2]; 2.4 g/day, moderate UC, combined studies, male): 50%
- Overall improvement at week 6 ([2]; 2.4 g/day, moderate UC, combined studies, pancolitis): 55%
- Overall improvement at week 6 ([2]; 2.4 g/day, moderate UC, combined studies, previous steroid use: no): 62%
- Overall improvement at week 6 ([2]; 2.4 g/day, moderate UC, combined studies, previous steroid use: yes): 52%
- Overall improvement at week 6 ([2]; 2.4 g/day, moderate UC, combined studies, proctitis): 71%
- Overall improvement at week 6 ([2]; 2.4 g/day, moderate UC, combined studies, proctosigmoiditis): 56%
- Success Rate ([2]; 2.4 g/day, moderate female, bowel and blood and sig scores at least 2, Study 2, primary endpoint, week 6): 27%
- Success Rate ([2]; 2.4 g/day, moderate female, bowel and blood and sig scores at least 2, Study 2, set to failure, week 6): 27%
- Success Rate ([2]; 2.4 g/day, moderate female, bowel and blood and sig scores at least 2, combined studies, primary endpoint, week 6): 51%
- Success Rate ([2]; 2.4 g/day, moderate female, bowel and blood and sig scores at least 2, combined studies, set to failure, week 6): 49%
- Success Rate ([2]; 2.4 g/day, moderate female, steroid or (bowel and blood and sig), Study 1, primary endpoint, week 6): 55%
- Success Rate ([2]; 2.4 g/day, moderate female, steroid or (bowel and blood and sig), Study 1, set to failure, week 6): 51%
- Success Rate ([2]; 2.4 g/day, moderate female, steroid or (bowel and blood and sig), Study 2, primary endpoint, week 6): 33%
- Success Rate ([2]; 2.4 g/day, moderate female, steroid or (bowel and blood and sig), Study 2, set to failure, week 6): 31%
- Success Rate ([2]; 2.4 g/day, moderate female, steroid or (bowel and blood and sig), combined studies, primary endpoint, week 6): 46%
- Success Rate ([2]; 2.4 g/day, moderate female, steroid or (bowel and blood and sig), combined studies, set to failure, week 6): 43%
- Success Rate ([2]; 2.4 g/day, moderate female, steroid use, Study 1, primary endpoint, week 6): 43%
- Success Rate ([2]; 2.4 g/day, moderate female, steroid use, Study 1, set to failure, week 6): 41%
- Success Rate ([2]; 2.4 g/day, moderate female, steroid use, Study 2, primary endpoint, week 6): 38%
- Success Rate ([2]; 2.4 g/day, moderate female, steroid use, Study 2, set to failure, week 6): 33%
- Success Rate ([2]; 2.4 g/day, moderate female, steroid use, combined studies, primary endpoint, week 6): 41%
- Success Rate ([2]; 2.4 g/day, moderate female, steroid use, combined studies, set to failure, week 6): 38%
- Actual response rate ([2]; 2.4 g/day, women, moderate disease): exceeded 60%
- Overall improvement ([2]; 4.8 g/day (800 mg tablet)): 72%
- Success Rate ([2]; 4.8 g/day, female, moderate disease, Study 2, set-to-failure): 59.1%
- Success Rate ([2]; 4.8 g/day, male, moderate disease, Study 1, primary analysis): 75.5%
- Success Rate ([2]; 4.8 g/day, male, moderate disease, Study 1, set-to-failure): 74.1%
- Success Rate ([2]; 4.8 g/day, male, moderate disease, Study 2, primary analysis): 76.3%
- Success Rate ([2]; 4.8 g/day, male, moderate disease, Study 2, set-to-failure): 72.5%
- Overall improvement at week 6 ([2]; 4.8 g/day, moderate UC, combined studies, female): 69%
- Overall improvement at week 6 ([2]; 4.8 g/day, moderate UC, combined studies, left-sided colitis): 71%
- Overall improvement at week 6 ([2]; 4.8 g/day, moderate UC, combined studies, male): 76%
- Overall improvement at week 6 ([2]; 4.8 g/day, moderate UC, combined studies, pancolitis): 71%
- Overall improvement at week 6 ([2]; 4.8 g/day, moderate UC, combined studies, previous steroid use: no): 69%
- Overall improvement at week 6 ([2]; 4.8 g/day, moderate UC, combined studies, previous steroid use: yes): 79%
- Overall improvement at week 6 ([2]; 4.8 g/day, moderate UC, combined studies, proctitis): 77%
- Overall improvement at week 6 ([2]; 4.8 g/day, moderate UC, combined studies, proctosigmoiditis): 71%
- Success Rate ([2]; 4.8 g/day, moderate female, bowel and blood and sig scores at least 2, Study 1, primary endpoint, week 6): 81%
- Success Rate ([2]; 4.8 g/day, moderate female, bowel and blood and sig scores at least 2, Study 2, set to failure, week 6): 53%
- Success Rate ([2]; 4.8 g/day, moderate female, bowel and blood and sig scores at least 2, combined studies, primary endpoint, week 6): 76%
- Success Rate ([2]; 4.8 g/day, moderate female, steroid or (bowel and blood and sig), Study 1, primary endpoint, week 6): 75%
- Success Rate ([2]; 4.8 g/day, moderate female, steroid or (bowel and blood and sig), Study 2, primary endpoint, week 6): 73%
- Success Rate ([2]; 4.8 g/day, moderate female, steroid or (bowel and blood and sig), combined studies, primary endpoint, week 6): 74%
- Success Rate ([2]; 4.8 g/day, moderate female, steroid or (bowel and blood and sig), combined studies, set to failure, week 6): about 65%
- Success Rate ([2]; 4.8 g/day, moderate female, steroid use, Study 1, primary endpoint, week 6): 79%
- Success Rate ([2]; 4.8 g/day, moderate female, steroid use, Study 1, set to failure, week 6): 73%
- Success Rate ([2]; 4.8 g/day, moderate female, steroid use, Study 2, set to failure, week 6): 58%
- Success Rate ([2]; 4.8 g/day, moderate female, steroid use, combined studies, primary endpoint, week 6): 73%
- Difference in Proportions ([2]; 4.8 vs 2.4 g/day, female, moderate disease, Study 1, primary analysis): 2.3%
- Difference in Proportions ([2]; 4.8 vs 2.4 g/day, female, moderate disease, Study 1, set-to-failure): 3.0%
- Difference in Proportions ([2]; 4.8 vs 2.4 g/day, female, moderate disease, Study 2, primary analysis): 4.4%
- Difference in Proportions ([2]; 4.8 vs 2.4 g/day, female, moderate disease, Study 2, set-to-failure): −2.4%
- Difference in Proportions ([2]; 4.8 vs 2.4 g/day, male, moderate disease, Study 1, primary analysis): 25.5%
- Difference in Proportions ([2]; 4.8 vs 2.4 g/day, male, moderate disease, Study 1, set-to-failure): 27.3%
- Difference in Proportions ([2]; 4.8 vs 2.4 g/day, male, moderate disease, Study 2, primary analysis): 27.5%
- Difference in Proportions ([2]; 4.8 vs 2.4 g/day, male, moderate disease, Study 2, set-to-failure): 24.8%
- Observed differences in success rate between treatment groups ([2]; 4.8 vs 2.4 g/day, men, moderate disease): approximately 25%
- Difference in Proportions ([2]; 4.8 vs 2.4 g/day, women, moderate disease, bowel and blood and sigmoidoscopy scores each ≧2, Study 1, primary endpoint): 14%
- Difference in Proportions ([2]; 4.8 vs 2.4 g/day, women, moderate disease, bowel and blood and sigmoidoscopy scores each ≧2, Study 2, primary endpoint): 42%
- Difference in Proportions ([2]; 4.8 vs 2.4 g/day, women, moderate disease, history of steroid use or bowel and blood and sigmoidoscopy each ≧2, Study 1, primary endpoint): 20%
- Difference in Proportions ([2]; 4.8 vs 2.4 g/day, women, moderate disease, history of steroid use or bowel and blood and sigmoidoscopy each ≧2, Study 2, primary endpoint): 40%
- Difference in Proportions ([2]; 4.8 vs 2.4 g/day, women, moderate disease, history of steroid use, Study 1, primary endpoint): 36%
- Difference in Proportions ([2]; 4.8 vs 2.4 g/day, women, moderate disease, history of steroid use, Study 2, primary endpoint): 27%
- Benefit of 4.8 g/day versus 2.4 g/day therapy (FIG. 3) ([2]; by baseline disease activity, subjects having moderate UC): increased therapeutic benefits
- Benefit of 4.8 g/day versus 2.4 g/day therapy (FIG. 2) ([2]; former steroid users, moderate UC): increased therapeutic benefits
- 4.8 g/day group versus 2.4 g/day group across pre-specified subgroups ([2]; point estimates and 95% confidence intervals of differences, 54 subgroups): consistently superior
- Benefit of 4.8 g/day versus 2.4 g/day therapy (FIG. 1) ([2]; subjects under about 65 years of age, Caucasians, non-smokers, moderate UC): increased benefit
- Tolerability ([3]; 2.4 g/day (400 mg tablet)): well tolerated
- Tolerability / adverse events ([3]; 4.8 g/day (800 mg tablet), oral delayed-release): well tolerated with adverse events comparable to the 2.4 g/day (400 mg tablet) dose
- Safety profile of regimen ([3]; about 4.8 g/day vs 2.4 g/day regimen): comparable to that of the 2.4 g/day regimen
- Probability that 4.8 g/day results in a higher success rate than 2.4 g/day (Bayesian analysis) [4]: 99.97%
- Probability of a successful treatment outcome (Bayesian analysis) ([4]; 2.4 g/day): 47.2%
- Probability of a successful treatment outcome (Bayesian analysis) ([4]; 4.8 g/day): 74.7%
- Physician's Global Assessment (PGA) score [1, 6]: improves in comparison to baseline
- Rectal bleeding [1, 6]: reduced

SMILES: O=C(O)c1cc(N=Nc2ccc(O)c(C(=O)O)c2)ccc1O [olsalazine, 3,3′-dicarboxy-4,4′-dihydroxyazobenzene]
- Physician's Global Assessment (PGA) score [1, 7]: improves in comparison to baseline
- Rectal bleeding [1, 7]: reduces
